The text below walks through data of patent US6525040B1, “Cyclic organoselenium compounds, their preparation and their uses” (Oxis Isle of Man, Limited, priority 1996, dated 2003).

Data set [1] in a line: Glutathione peroxidase activity (NADPH-coupled, GSH/glutathione disulphide reductase). The conditions noted are these: compound 20 μM, pH = 7.3, 37° C., [GSH] = 2 mM; for Glutathione peroxidase activity, H2O2: substrate H2O2; for Glutathione peroxidase activity, t-BuOOH: substrate t-BuOOH. The class given is biochemical. How it is done: The glutathione peroxidase activity is determined by using a 50 mM HEPES buffer, pH=7.3 (at 37° C.), containing 0.2 mM DTPA, 0.144 mM NADPH, 2.2 mM reduced glutathione (GSH) and 1.1 U/ml glutathione disulphide reductase. This buffer further contains 110 U/ml catalase when hydrogen peroxide is not used as substrate.
To 1.5 ml of the buffer described above, are added 100 μl of an ethanolic stock solution of the compound tested or 100 μl of absolute ethanol (blank). Each compound is tested at a final concentration of 20 μM. The reaction medium is equilibrated for 2 minutes at 37° C. Then 50 μl of 6.6 mM tert-butyl hydroperoxide (t-BuOOH) in ultrapure water, or 3.3 mM hydrogen peroxide (H2O2) in ultrapure water are added. The glutathione peroxidase activity is determined at 37° C. by measuring the decrease of absorbance at 340 nm for 5 minutes. Said activity or initial enzymatic rate is proportional to the slope of the variation of absorbance with time.
The catalytic activity of oxygen reduction of the compounds tested corresponds to the rate of consum.p.ion of NADPH in the absence of hydroperoxide.
They are expressed in nmoles of hydroperoxide reduced per minute.

Data set [2] deals with TNF-α-induced E-selectin expression by endothelial cells (HUVEC). Nature of the data set: Inhibition of TNF-α-induced E-selectin expression by endothelial cells (cell ELISA). The class given is cell-based. The settings on record: compound 10 μM; TNF-α 1 ng/ml; 3 h 30 min incubation; human endothelial cells. How it is done:
(§1) Human endothelial cells are grown under the same conditions as those described in Example 6.
(§2) When the cells are close to confluence, they are incubated for one hour in the presence or in the absence of one of the following compounds: BXT-51097 or BXT-51103. Each one of these compounds is incorporated at 10 μM in the culture medium containing 2% foetal calf serum, everything else being equal. After the removal of the culture medium, the cells are incubated in the presence or in the absence (control) of TNF-α, at 1 ng/ml, in the same culture medium as before. In the case of cells pre-treated with a compound, the medium further contains the same compound at 10 μM. After three hours and thirty minutes of incubation, the cells are washed with PBS buffer and they are fixed with 2% formaldehyde in the same buffer. The P- and E-selectin expressions on the cells are then measured by an ELISA determination by successively incubating the cells in the presence of a mouse monoclonal antibody, anti-P-selectin and anti-E-selectin respectively, and a rabbit anti-mouse anti-antibody labelled with alkaline phosphatase. The quantification is carried out upon the addition of para-nitrophenyl phosphate whose hydrolysis is followed at 405 nm.
On the technique in general: An ELISA detects its analyte on a solid surface through an enzyme-linked reagent.

The test system of data set [3] is TNF-α-induced P-selectin expression by endothelial cells (HUVEC). The data set is described as follows: Inhibition of TNF-α-induced P-selectin expression by endothelial cells (cell ELISA). The settings on record: compound 10 μM; TNF-α 1 ng/ml; 3 h 30 min incubation; human endothelial cells. It counts as cell-based. How it is done:
as §1, §2

For data set [4], the system named is TNF-α-induced interleukin 8 release by endothelial cells (HUVEC). The data set is described as follows: Inhibition of the TNF-α-induced release of interleukin 8 by endothelial cells (ELISA). The class given is cell-based. The conditions noted are these: compound 10 μM, TNF-α 1 ng/ml, 3 h 30 min incubation, human endothelial cells, read-out: Inhibition of TNF-α-induced IL-8 production in the culture medium. How it is done:
Human endothelial cells are grown at 37° C. in multi-well plates under a water-saturated atmosphere constituted of a gaseous mixture of 95% air and 5% CO2. Their culture medium is constituted by a medium M 199 pH=7.4 containing 20% foetal calf serum, 2 mM L-glutamine, 100 U/ml penicillin, 100 μg/ml streptomycin and 1% by volume of a medium supplement containing heparin and a growth factor for these cells.
When the cells are close to confluence, they are incubated for one hour in the presence or in the absence of one of the following compounds: BXT-51097 or BXT-51103. Each one of these compounds is incorporated at 10 μM in the culture medium containing 2% foetal calf serum, everything else being equal. After removal of the culture medium, the cells are incubated in the presence or in the absence (control) of TNF-α, at 1 ng/ml, in the same culture medium as before. In the case of cells pre-treated with a compound of the invention, the medium further contains the same compound at 10 μM. After three hours and thirty minutes of incubation, the interleukin 8 (IL-8) released into the culture medium is determined by ELISA.

For data set [5] the following is noted: even in the presence of an excess of glutathione GSH; cited from earlier work.

Take `CC1(C)CN[Se]c2sccc21` [BXT-51097, 4,4-Dimethyl-thieno-[3,2-e]-isoselenazine]: in data set [1], the “Glutathione peroxidase activity, H2O2” value is 39.8 nmoles of hydroperoxide reduced/min and the “Glutathione peroxidase activity, t-BuOOH” value is recorded as 11.4 nmoles of hydroperoxide reduced/min. In data set [2], the “Inhibition of TNF-α-induced E-selectin expression” value is recorded as “totally inhibited”. Moreover, the “Inhibition of TNF-α-induced P-selectin expression” value in data set [3] is reported as “totally inhibited”. Besides, in data set [4], the inhibition – broadly, the drop in the measured response relative to a control, in per cent – at 10 µM was no less than 85%.
As for `CC1(C)CN[Se](=O)c2sccc21` (stereo not drawn) [BXT-51100, 4,4-Dimethyl-thieno-[3,2-e]-isoselenazine-1-oxide], in data set [1], the “Glutathione peroxidase activity, H2O2” value is 37.1 nmoles of hydroperoxide reduced/min and the “Glutathione peroxidase activity, t-BuOOH” value is 10.1 nmoles of hydroperoxide reduced/min.
As for `CC1(C)CN[Se]c2ccsc21` [BXT-51103, 4,4-Dimethyl-thieno-[2,3-e]-isoselenazine], in data set [1], the “Glutathione peroxidase activity, H2O2” value is on record as 34.9 nmoles of hydroperoxide reduced/min and the “Glutathione peroxidase activity, t-BuOOH” value is reported as 15.5 nmoles of hydroperoxide reduced/min. For the same molecule, the “Inhibition of TNF-α-induced E-selectin expression” value in data set [2] was “totally inhibited”. In addition, the “Inhibition of TNF-α-induced P-selectin expression” value in data set [3] is listed as “totally inhibited”. Besides, in data set [4], the inhibition at 10 µM is no less than 85%.
As to `CC1(C)CN[Se](=O)c2ccsc21` (stereo not drawn) [BXT-51105, 4,4-Dimethyl-thieno-[23-e]-isoselenazine-1-oxide], in data set [1], the “Glutathione peroxidase activity, H2O2” value is on record as 35.7 nmoles of hydroperoxide reduced/min and the “Glutathione peroxidase activity, t-BuOOH” value is listed as 13.9 nmoles of hydroperoxide reduced/min.
Take `O=c1c2ccccc2[se]n1-c1ccccc1` [ebselen, 2-phenyl-1,2-benzisoselenazolin-3-one]: in data set [5], the Solubility in water entry is “very little soluble in water”.
